Experiment: mn = molality of the nth substance listed, in mol/kg
Conditions: 101.33 kPa, Liquid; for speed of sound: Frequency=2 MHz, Linear variable-path acoustic interferometer; for mass density: Pycnometric method

O=C([O-])c1ccccc1O.[Na+] [sodium salicylate] + O
Conditions | mass density, 288.15 K [kg/m3] | mass density, 298.15 K [kg/m3] | mass density, 308.15 K [kg/m3] | speed of sound, 288.15 K [m/s] | speed of sound, 298.15 K [m/s] | speed of sound, 308.15 K [m/s]
m1 = 0.01 | – | – | 994.69 | – | – | 1520.8
m1 = 0.0101 | 999.8 | 997.73 | – | 1466.8 | 1497.6 | –
m1 = 0.0221 | 1000.62 | 998.51 | 995.46 | 1467.9 | 1498.8 | 1521.9
m1 = 0.0307 | 1001.19 | 999.07 | – | 1468.7 | 1499.6 | –
m1 = 0.0333 | – | – | 996.16 | – | – | 1523
m1 = 0.04 | – | – | 996.59 | – | – | 1523.6
m1 = 0.0448 | 1002.19 | 1000 | – | 1470 | 1501 | –
m1 = 0.0451 | – | – | 996.9 | – | – | 1524.2
m1 = 0.0501 | 1002.51 | 1000.34 | 997.24 | 1470.5 | 1501.5 | 1524.6
m1 = 0.0546 | 1002.85 | 1000.67 | – | 1470.8 | 1501.9 | –
m1 = 0.0572 | – | – | 997.65 | – | – | 1525.3
m1 = 0.06 | 1003.2 | 1001.01 | – | 1471.4 | 1502.4 | –
m1 = 0.0667 | 1003.66 | – | – | 1472 | – | –
m1 = 0.0702 | – | – | 998.5 | – | – | 1526.5
m1 = 0.0704 | 1003.92 | 1001.66 | – | 1472.3 | 1503.5 | –
m1 = 0.0802 | 1004.55 | 1002.35 | 999.1 | 1473.2 | 1504.4 | 1527.5
m1 = 0.0848 | 1004.87 | 1002.59 | – | 1473.6 | 1504.9 | –
m1 = 0.0857 | – | – | 999.47 | – | – | 1528
m1 = 0.0906 | 1005.23 | – | 999.8 | 1474.2 | – | 1528.4
m1 = 0.0907 | – | 1002.99 | – | – | 1505.4 | –
m1 = 0.0951 | – | 1003.26 | 1000.07 | – | 1505.8 | 1528.9
m1 = 0.1018 | – | 1003.68 | – | – | 1506.5 | –
m1 = 0.1019 | 1006 | – | – | 1475.2 | – | –
m1 = 0.1023 | – | – | 1000.5 | – | – | 1529.6
